These results are taken from ChEMBL document CHEMBL6121012, “Chemical Basis of the Traditional Ayurvedic Detoxification Process of the Toxic Medicinal Plant Plumbago zeylanica” (J Nat Prod, 2025).

The data set can be described thus: Cytotoxicity against human HepG2 cells assessed as reduction in cell viability incubated for 24 hrs by MTT assay. The class given is toxicity, cell-based.
With `C[C@@H]1CC(=O)c2c(O)cccc2[C@@H]1O`, the IC50 at 24 h came to 3000 µM.
Turning to `C[C@@H]1CC(=O)c2c(O)cccc2[C@H]1O`, the IC50 at 24 h is 1000 µM.
With `CC1=CC(=O)c2c(O)cccc2C1=O` [PLUMBAGIN] the figure was 14 µM.
